Patent US20160106773A1, “TREATMENT FOR DISEASES RELYING ON DISCOVERY THAT THIOREDOXIN MEDIATES NITRIC OXIDE RELEASE IN CELLS” (Duke University, priority 2008, published 2016)

Legend:
Assay type in all cases: in vivo
person with glioblastoma = experiment: Working Example XI: patient with glioblastoma; conditions: oral capsule: 6 mg auranofin and 50 mg isosorbide dinitrate, or 6 mg auranofin and 150 mg/m^2 BCNU, or 2.5 mg auranofin and 2 gm L-BSO every 6 hours
Experimental: A person with glioblastoma is given orally a capsule containing 6 mg auranofin and 50 mg isosorbide dinitrate or 6 mg auranofin and 150 mg/m^2 BCNU or 2.5 mg auranofin and 2 gm L-BSO given every 6 hours. Regression in the cancer occurs.

person with septic shock = experiment: Working Example IX: patient with septic shock; conditions: combination: gene therapy for TrxIP and 15 mg/kg intravenous L-NMMA (2 mg/kg IV TID)
Experimental: A person with septic shock is given gene therapy for TrxIP and 15 mg/kg intravenous L-NMMA (2 mg/kg IV TID).

[1] = system: person with Parkinson's disease; experiment: Working Example III: patient with Parkinson's disease; conditions: combination: orally 300 mg N-acetylcysteine and 0.3 mg aptamer directed at Parkin by injection into spinal fluid, 30 days
Experimental: A person with Parkinson's disease is given orally 300 mg N-acetylcysteine and 0.3 mg dose by injection into spinal fluid (range may be 10 μg-2 mg of body weight) of aptamer directed at Parkin for 30 days. Movement improves.

person with Alzheimer's = experiment: Working Example IV: patient with Alzheimer's; conditions: combination: NAC 300 mg/day, ascorbate 1 gm/day and minocycline 100 mg TID
Experimental: A person with Alzheimer's is then started on combination of NAC (300 mg/day), ascorbate 1 gm/day and minocycline 100 mg TID and memory improves.

[2] = system: person with rhematoid arthritis; experiment: Working Example VII: patient with rheumatoid arthritis; conditions: combination: deprenyl 10 mg plus ascorbate 1 gm plus ISDN 5 mg PO TID or plus cysteine or NaHS (final concentration in blood 10 μM-1 mM)
Experimental: A person with rhematoid arthritis is administered deprenyl 10 mg plus ascorbate 1 gm plus ISDN 5 mg PO TID or plus cysteine or NaHS (final concentration in blood of 10 μM-1 mM). Progression of the disease slows.

65 year with Alzheimers = experiment: Working Example VI: patient with Alzheimers; conditions: combination: deprenyl 15 mg and S-nitrosoglutathione 10 mg po TID
Experimental: A 65 year with Alzheimers is administered deprenyl 15 mg and S-nitrosoglutathione 10 mg po TID. Blood pressure is unaltered but memory improves.

[3] = system: person with large cell lymphoma disease; experiment: Working Example I: patient with large cell lymphoma given auranofin plus isosorbide dinitrate; conditions: combination: 6 mg auranofin and 50 mg isosorbide dinitrate by mouth once a day for a month; patient not responding to treatment
Experimental: A person with large cell lymphoma disease who was not responding to treatment was given by mouth 6 mg auranofin and 50 mg isosorbide dinitrate once a day for a month. Tumor burden decreases as determined by CAT scan.

with muscular dystrophy = experiment: Working Example V: patient with muscular dystrophy; conditions: combination: deprenyl 10 mg/day plus isosorbide dinitrate (ISDN) 10 mg/day
Experimental: A person with muscular dystrophy is given deprenyl 10 mg/day plus isosorbide dinitrate (ISDN) 10 mg/day and weakness improves.

[4] = system: person with central core disease, malignant hyperthermia (MH); experiment: Working Example VIII: patient with central core disease and malignant hyperthermia; conditions: combination: deprenyl 10 mg and ISDN 5 mg po tid
Experimental: A person with central core disease undergoes operation for pancreatic cancer and course complicated by malignant hyperthermia (MH). The patient is administered deprenyl 10 mg and ISDN 5 mg po tid with acute relief of MH and improvement in muscle function over time.

[5] = system: person with recurrent restenosis; experiment: Working Example II: patient with recurrent restenosis given arsenic trioxide plus nitrate; conditions: combination: 0.15 mg/kg/day IV arsenic trioxide and either 60 mg isosorbide mononitrate per day or nitroglycerin patch 1-2 inches up to 4 times a day; after one month
Experimental: A person with recurrent restenosis is give 0.15 mg/kg/day IV arsenic trioxide and either 60 mg isosorbide mononitrate per day or nitroglycerin patch of 1-2 inches up to 4 times a day.

[6] = system: person with pancreatic cancer; experiment: Working Example X: patient with pancreatic cancer; conditions: combination: gene therapy for TrxIP and 10 gms sodium ascorbate by infusion per day
Excerpt: A person with pancreatic cancer is given gene therapy for TrxIP and by infusion per day 10 gms of sodium ascorbate. The cancer regresses.

Compound: O=NN(CCCl)C(=O)NCCCl [BCNU, carmustine]
- Regression in the cancer (person with glioblastoma): Regression

Compound: CCCCS(=N)(=O)CCC(N)C(=O)O [L-BSO, L-buthionine-SR-sulfoximine]
- Regression in the cancer (person with glioblastoma): Regression

Compound: CC(=O)O.CNC(=N)NCCC[C@H](N)C(=O)O [L-NMMA, Ng-monomethyl-L-arginine, monoacetate salt]
- Blood pressure (person with septic shock): increases and stabilizes

Compound: CC(=O)N[C@@H](CS)C(=O)O [N-acetylcysteine]
- Movement [1]: improves
- memory (person with Alzheimer's): improves

Compound: [Na+].[SH-] [NaHS]
- Progression of the disease [2]: slows

Compound: N[C@@H](CCC(=O)N[C@@H](CSN=O)C(=O)NCC(=O)O)C(=O)O [S-nitrosoglutathione]
- memory (65 year with Alzheimers): improves

Compound: CC(=O)OC[C@H]1O[C@@H]([S-])[C@H](OC(C)=O)[C@@H](OC(C)=O)[C@@H]1OC(C)=O.CCP(CC)CC.[Au+] [auranofin]
- Regression in the cancer (person with glioblastoma): Regression
- Tumor burden as determined by CAT scan [3]: decreases

Compound: N[C@@H](CS)C(=O)O [cysteine]
- Progression of the disease [2]: slows

Compound: C#CCN(C)[C@H](C)Cc1ccccc1 [deprenyl]
- Blood pressure (65 year with Alzheimers): unaltered
- memory (65 year with Alzheimers): improves
- weakness (with muscular dystrophy): improves
- Progression of the disease [2]: slows
- muscle function over time [4]: improvement
- relief of MH (malignant hyperthermia) [4]: acute relief

Compound: O=[N+]([O-])O[C@H]1CO[C@H]2[C@@H]1OC[C@H]2O[N+](=O)[O-] [isosorbide dinitrate]
- weakness (with muscular dystrophy): improves
- Regression in the cancer (person with glioblastoma): Regression
- Progression of the disease [2]: slows
- Tumor burden as determined by CAT scan [3]: decreases
- muscle function over time [4]: improvement
- relief of MH (malignant hyperthermia) [4]: acute relief

Compound: O=[N+]([O-])O[C@@H]1CO[C@H]2[C@@H]1OC[C@@H]2O [isosorbide mononitrate]
- disease (restenosis) [5]: abates
- incidence of thrombotic complication [5]: disappears
- restenosis recurrence [5]: does not reoccur

Compound: O=[N+]([O-])OCC(CO[N+](=O)[O-])O[N+](=O)[O-] [nitroglycerin]
- disease (restenosis) [5]: abates
- incidence of thrombotic complication [5]: disappears
- restenosis recurrence [5]: does not reoccur

Compound: O=C1O[C@H]([C@@H](O)CO)C([O-])=C1O.[Na+] [sodium ascorbate]
- cancer regression [6]: regresses

Compound: arsenic trioxide
- disease (restenosis) [5]: abates
- incidence of thrombotic complication [5]: disappears
- restenosis recurrence [5]: does not reoccur
